Data: patent US20220088199A1, “METHOD FOR PROTECTING GLYCEROL ALKYL ETHERS FROM OXIDATION” (SACHEM, INC., priority 2016, published 2022)

Key:
[1] = Stability testing of SASKINE50 blends at 50° C., analysed by GC (Example 2); settings: for loss of SASKINE50 (3-[(2-ethylhexyl)oxy]-1,2-propanediol) assay on storage: one month, 725 ppm antioxidant in 99.6% pure SASKINE50, FIG. 3
Description: The blend is analyzed via gas chromatography (GC) prior to stability testing. Following the analysis result, the blend is placed under atmospheric pressure and under an inert gas into individual sample bottles as not to disturb the testing conditions during sampling. The test conditions are 50° C. for one month. […] These test conditions are considered to simulate a shelf-life of approximately one year at room temperature.
The samples are dissolved in isopropyl alcohol at a concentration of 10% for the GC analysis. The following GC conditions are used:
Column: • Material: fused silica WCOT • Length: 30 m • Internal diameter: 0.32 mm • Stationary phase: DB1701 • Film thickness: 1 μm • Gas regulation: Carrier gas: hydrogen • Make-up gas: helium • Temperatures: Detector: 300° C. • Injector: 275° C. • Start temperature: 115° C. • Warm up speed 1: 8° C./minute • End temperature: 210° C. • Warm up speed 2: 15° C./minute • End temperature: 275° C.
Detection: Type detector: FID

[2] = tested on: microbial strain (bacteria, yeasts, molds); assay: Minimum inhibitory concentration (MIC) determination; type: cell-based; settings: FIG. 7; compared to plain material and Sensiva
Description: As discussed in the background, the purpose of the glyceryl ether compounds such as SASKINE50™ and SASKINE80™ is as a preservative and antimicrobial, especially in cosmetics and pharmaceutical preparations. To test the SASKINE50™ and SASKINE80™, minimum inhibitory concentrations are determined for SASKINE50™ alone, SASKINE50™ with naringenin, SASKINE80™ alone, and SASKINE80™ with naringenin, and, for comparison, Sensiva® SC 50, which contains 3-[(2-ethylhexyl)oxy]-1,2-propanediol and synthetic alpha-tocopherol, which is commercially available from Schülke & Mayr Benelux B.V., 2032 HA-Haarlem, Netherlands. The determination of the minimal inhibitory concentration (MIC) is carried out according to the standard procedure described below.
The purpose of the MIC study is to find a minimum concentration of the test item which will enable to inhibit in vitro the growth of a microbial strain. The MIC characterizes the bacteriostatic or fungistatic effect of a product.
In the MIC test, the product is diluted according to a geometric progression of reason 2 over a range of at least 5 dilutions starting from the maximum concentration to be tested specified by the customer. In each tube of the dilution range, a cultured medium double concentered is included with the strains to be tested. […]

[3] = Stability testing of SASKINE80 blend at 50° C., analysed by GC (Example 3); type: physicochemical
Description: In this example, SACHEM's SASKINE80™ is used as basis for the stability testing of […] within the scope of the present invention, i.e., naringenin. A pre-defined blend containing SASKINE80™ and this anti-oxidant compound in accordance with the present invention are prepared, the blend containing 725 ppm of the naringenin in 99.6% pure SASKINE80™ (3-[(n-octyl)oxy]-1,2-propanediol). […] The test conditions are 50° C. for two weeks and four weeks.

[4] = tested on: human reconstructed epidermis (SkinEthic model); assay: In vitro skin irritation study, SkinEthic model, OECD 439; type: cell-based; settings: pure product applied 42 minutes, 42 hours incubation; MTT viability and IL1-α; FIG. 8
Description: As noted herein, the inventive compositions are intended for use in cosmetic and pharmaceutical compositions. One important criteria for such products is that there be no skin irritation, when the compositions are applied to the skin of the person using the cosmetic or pharmaceutical composition. To test the compositions of the present invention, a non-animal test is conducted, which is an in vitro skin irritation study of the compositions on human reconstructed epidermis known as the SkinEthic model, OECD 439. […] After the pure product has been applied to the epidermis for 42 minutes and they have been incubated for 42 hours post-treatment, cell viability is determined by measuring mitochondrial succinate dehydrogenase activity in living cells. […] A spectrophotometer is used to read the results after the crystals have been dissolved. The measured absorbances are proportional to the number of living cells. In addition, release of inflammation (IL1-α) mediators is measured by colorimeter if cell viability is over 50%. […] Cytotoxicity: absorbance is measured three times at 540 nm. The results are expressed as a viability percentage compared to a negative control: […]
IL1-α titration: IL1-α concentrations in the culture media are evaluated using the instructions on the titration kit and are expressed as pg/ml. […]

[5] = Stability testing at room temperature: formation of formaldehyde and peroxides (Example 1); type: physicochemical; settings: zero time
Text: The thus-prepared compositions are subjected to stability testing, under which formation of formaldehyde and peroxides and determined as indicators of stability, in which higher amounts of formaldehyde and/or peroxides are deemed to show lower stability of the mixture. […] This sample is obtained commercially from Schulke GmbH. The tests for all samples determine the formaldehyde and peroxide contents of the test sample when stored at room temperature (RT), for periods of 0, 2, 4, 6, 8, 10 and 12 months. The 0 month sample is the freshly prepared composition.

Row | loss of SASKINE50 (3-[(2-ethylhexyl)oxy]-1,2-propanediol) assay on storage [1] | SMILES | further results
1 | almost no loss | COc1cc(O)c2c(=O)c(O)c(-c3ccc(O)c(O)c3)oc2c1 [rhamnetin] | –
2 | performed less well | C[C@@H]1O[C@@H](O[C@H]2[C@H](Oc3cc(O)c4c(c3)O[C@H](c3ccc(O)cc3)CC4=O)O[C@H](CO)[C@@H](O)[C@@H]2O)[C@H](O)[C@H](O)[C@H]1O [naringin hydrate] | –
3 | – | CCCCCCCCOCC(O)CO (centres unmarked) [SASKINE80™, 3-[(n-octyl)oxy]-1,2-propanediol] | minimum inhibitory concentration (anti-microbial growth) [2]: even better performance; increase in low boiling compounds ([3]; two and four weeks, FIG. 5b): notable increase; SASKINE80 assay decrease ([3]; two weeks and four weeks, FIG. 5a): about 0.40%
4 | almost no loss | O.O=c1c(O)c(-c2ccc(O)cc2O)oc2cc(O)cc(O)c12 [norinhydrate] | –
5 | almost no loss | COc1ccc(-c2cc(=O)c3c(O)cc(O)cc3o2)cc1O [diosmetin] | –
6 | significant loss | CCCCC(CC)COCC(O)CO (centres unmarked) [SASKINE50™, 3-[(2-ethylhexyl)oxy]-1,2-propanediol] | skin irritation classification [4]: irritant of category 1 or 2; increase in volatile degradation products (low boiling compounds) ([1]; 2 weeks and 4 weeks, 725 ppm antioxidant in SASKINE50, FIG. 4): significant amount of breakdown products; peroxide present ([5]; Example 1, FIG. 1): measurable, non-zero amount; formaldehyde present ([5]; Example 1, FIG. 2): measurable, non-zero amount

Row | SMILES | loss of SASKINE50 (3-[(2-ethylhexyl)oxy]-1,2-propanediol) assay on storage [1] | further results
7 | O=c1c(O)c(-c2ccc(O)c(O)c2)oc2cc(O)cc(O)c12 [quercetin] | almost no loss | –
8 | O=C1C[C@@H](c2ccc(O)cc2)Oc2cc(O)cc(O)c21 [naringenin] | almost no loss | –
